From PubChem BioAssay AID2744 (NMMLSC, 2010) come the findings set out here.

Structures are written as SMILES. The source made the active and inactive calls.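 Rule for the calls: active = fitted half-maximal concentration for changing reporter fluorescence at or below a set limit; inactive = the rest.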

Chain of Citrate synthase, peroxisomal (Saccharomyces cerevisiae (strain ATCC 204508 / S288c)) (P08679 whole entry, looked up): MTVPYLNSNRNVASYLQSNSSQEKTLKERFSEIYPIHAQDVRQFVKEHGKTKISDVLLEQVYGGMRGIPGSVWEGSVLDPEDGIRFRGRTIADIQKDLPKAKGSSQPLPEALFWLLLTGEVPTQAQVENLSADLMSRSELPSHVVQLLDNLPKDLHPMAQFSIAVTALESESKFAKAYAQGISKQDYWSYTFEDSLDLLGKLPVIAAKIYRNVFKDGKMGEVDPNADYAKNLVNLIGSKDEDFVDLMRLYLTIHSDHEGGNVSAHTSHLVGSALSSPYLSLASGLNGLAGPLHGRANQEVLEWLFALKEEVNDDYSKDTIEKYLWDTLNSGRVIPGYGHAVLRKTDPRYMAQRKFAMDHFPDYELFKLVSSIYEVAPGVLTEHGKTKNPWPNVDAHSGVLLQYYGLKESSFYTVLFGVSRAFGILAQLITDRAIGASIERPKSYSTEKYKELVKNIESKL

The first test concerns the target Citrate synthase, peroxisomal (Saccharomyces cerevisiae (strain ATCC 204508 / S288c)) (UniProt P08679). The test is described as follows: yeast TOR pathway CIT2-GFP reporter potency – flow cytometry, MLPCN hits, dose response (AID 2744). Conditions: S. cerevisiae CIT2-GFP strain, 3 h, at 33 µM (top of the series). A general note: Flow cytometry measures light scatter and fluorescence of single cells or particles in a stream.
As for `Nc1c(C(=O)c2cccs2)sc2nsc(SCCN3CCCCC3)c12`, the “GFP fluorescence, higher = induction” value is “inactive”.
Regarding `CC(C)[C@@]1(c2ccc(Cl)cc2)ON(c2ccccc2C(F)(F)F)C1=O`, the “GFP fluorescence, higher = induction” value is “inactive”.
On the same count and under the same terms, next, `CCCCNc1c2c3c(cccc3n(C)c1=O)C(=O)c1ccccc1-2`: “inactive”; `COc1ccc(C(=O)NC(=S)NNC(=O)CCc2ccccc2)cc1`: “inactive”; `Cc1ccc(/C=c2\sc3nc(-c4cccs4)nn3c2=O)o1`: “inactive”.
The same measure, in the same setting: the result for `CCOc1ccc(NC2=C(Cl)C(=O)N(Cc3ccccc3)C2=O)cc1` reads “inactive”; that for `CCc1cc(C(=O)Nc2nc(-c3ccccn3)cs2)sc1C`, “inactive”.
As for `O=C(O)/C=C/C(=O)c1ccc2c(c1)CCc1ccccc1-2`, the “GFP fluorescence, higher = induction” value is “inactive”.
Still for that read-out and setting: the result for `CCCCCCCCCCCCCCCC[n+]1cccc2ccccc21` reads “inactive”.
The same measure, in the same setting: the result for `O=C(C#Cc1cccc([N+](=O)[O-])c1)c1ccccc1` reads “inactive”; that for `CCOC(=O)CSC1=NC(=O)/C(=C/c2ccc(OC)cc2)S1`, “inactive”.
Consider `O=C1N(c2ccccc2C(F)(F)F)O[C@]1(c1ccccc1)C1CCCC1`, for which the “GFP fluorescence, higher = induction” value is “inactive”.
Still for that read-out and setting: next, `C=CCOc1cccc(C(=O)/C=C2/C(=O)Nc3ccccc32)c1`: “inactive”; `CCN(CC)C(=S)SSC(=S)N(CC)CC`: “inactive”.
Still for that read-out and setting: the result for `COc1ccc(/C=C/C(=O)C2C(=O)C=C(C)OC2=O)cc1O` (configuration not stated) reads “inactive”; that for `O=S(=O)(/N=C(/Sc1ccccc1)c1ccccc1)c1ccccc1`, “inactive”.
Still for that read-out and setting: next, `CCOc1ccc(N2C(=O)C(Cl)=C(Nc3ccccc3O)C2=O)cc1`: “inactive”.
Take `CC[C@]1(c2ccccc2OC)ON(c2ccccc2C(F)(F)F)C1=O`: the “GFP fluorescence, higher = induction” value was “inactive”.
Consider `CCC(=O)Oc1oc(-c2ccccc2)nc1C=Nc1ccccc1OC`, for which the “GFP fluorescence, higher = induction” value was “inactive”.
Still for that read-out and setting: the result for `Cc1ccc(C(=O)/C=C/C(=O)c2ccc(C)cc2)cc1` reads “inactive”; that for `Cc1ccc(/C=C2\SC(=S)N(CC3CCCO3)C2=O)o1` (configuration not stated), “inactive”; that for `CC(=O)Oc1ccc(N2C(=O)C3C4C=CC(CO)(O4)C3C2=O)cc1` (configuration not stated), “inactive”.
On the same count and under the same terms, next, `Cc1cc(NC(c2ccc(Cl)cc2)c2ccc3cccnc3c2O)no1` (configuration not stated): “inactive”.
Regarding `O=C(O)c1cccc(S(=O)(=O)Nc2ccc(S(=O)(=O)N3CCOCC3)cc2)c1`, the “GFP fluorescence, higher = induction” value is “inactive”.
`COC(=O)/C(=C/c1c[nH]c2ccccc12)[N+](=O)[O-]`: the “GFP fluorescence, higher = induction” value was “inactive”.
`Cn1c(=O)c(C(=O)NNC(=O)c2ccc(Br)cc2)c(O)c2ccccc21`: the “GFP fluorescence, higher = induction” value was “inactive”.
In the case of `Cc1ccc2c(nc3s/c(=C\c4ccc(-c5ccccc5C(=O)O)o4)c(=O)n32)c1C`, the “GFP fluorescence, higher = induction” value was “inactive”.
For the compound `O=C(NC(=S)NNC(=O)c1cnccn1)c1ccc(Cl)cc1`, the “GFP fluorescence, higher = induction” value was “inactive”.
On the same count and under the same terms, next, `CCn1c(=O)c(C(C)=O)c(O)c2ccccc21`: “inactive”; `O=C1Nc2ccc(Br)cc2/C1=C/C(=O)c1ccc2c(c1)OCO2`: “inactive”.
Still for that read-out and setting: the result for `N/C(Cc1ccc(Cl)cc1Cl)=N\OC(=O)c1ccccc1` reads “inactive”.
The same measure, in the same setting: next, `Oc1ccc(COCc2ccccc2)c2cccnc12`: “inactive”; `CCc1ccc(/C=C/C(=O)c2cc(Br)ccc(=O)c2O)cc1`: “inactive”.
As for `Nc1ccccc1C#CC(=O)c1ccccc1`, the “GFP fluorescence, higher = induction” value is “inactive”.
Still for that read-out and setting: next, `COc1cc(NC(=O)c2cccc(C)c2)ccc1NC(=O)c1cc2ccccc2o1`: “inactive”; `COc1cc(/C=C2/C(=O)c3cccc([N+](=O)[O-])c3C2=O)c(Br)cc1O`: “inactive”; `O=[N+]([O-])c1ccc(N=Nc2c(Cl)cc(O)cc2Cl)cc1`: “inactive”.
Take `O=[N+]([O-])c1cc(Cl)cc(/C=N\Nc2ccccn2)c1O`: the “GFP fluorescence, higher = induction” value was “inactive”.
The same measure, in the same setting: next, `CCc1ccc2c(c1)/C(=C/C(=O)c1cccs1)C(=O)N2`: “inactive”; `COc1ccc(C(c2c(C)[nH]n(C(N)=S)c2=O)C(C#N)C#N)cc1` (configuration not stated): “inactive”.
Still for that read-out and setting: the result for `COc1cc(N=c2ssnc2Cl)c(OC)cc1Cl` reads “inactive”; that for `Cc1c(C)c2ccc(Oc3ccc([N+](=O)[O-])cc3C(F)(F)F)c(C)c2oc1=O`, “inactive”; that for `COc1ccc(N2C(=O)C(Cl)=C(NCc3ccccc3)C2=O)cc1`, “inactive”.
Still for that read-out and setting: the result for `CCc1nc2ccccc2c(=O)n1NC(=O)c1c(O)c2ccccc2n(CC)c1=O` reads “inactive”.
As for `CC(C)[C@]1(c2ccccc2)ON(c2ccccc2C(F)(F)F)C1=O`, the “GFP fluorescence, higher = induction” value was “inactive”.
The same measure, in the same setting: next, `COc1ccc(C(=O)/C=C2/C(=O)Nc3ccccc32)cc1`: “inactive”; `[O-][n+]1cccc2c(Br)cc(Br)c(O)c21`: “inactive”; `N#C/C(=C\c1ccccn1)c1nc2ccccc2s1`: “inactive”.
Still for that read-out and setting: next, `Cc1cccc2c1NC(=O)/C2=C\C(=O)c1cccs1`: “inactive”.
Regarding `Cc1[nH]n(-c2ccccc2)c(=O)c1C(c1ccccc1[N+](=O)[O-])C(C#N)C#N` (configuration not stated), the “GFP fluorescence, higher = induction” value is “inactive”.
For `COc1cccc(C(=O)Nc2nnc(-c3ccc(Cl)cc3)o2)c1`, the “GFP fluorescence, higher = induction” value is “inactive”.
On the same count and under the same terms, the result for `CCCc1ccc(OCC(=O)NNC(=S)NC(=O)c2ccco2)cc1` reads “inactive”; that for `CN(C)c1ccc(N=Cc2nc(-c3ccccc3)oc2OC(=O)c2cccc(Cl)c2)cc1`, “inactive”; that for `Cc1ccc(NC(=O)c2nc(S(=O)(=O)Cc3ccccc3)ncc2Cl)cc1`, “inactive”.
The same measure, in the same setting: the result for `CCN(CC)c1ccc(/C=C2/C(=O)c3ccc(C(=O)O)cc3C2=O)cc1` reads “inactive”; that for `COc1ccc(/C=C/C(=O)NC(=S)NNC(=O)c2cnccn2)cc1`, “inactive”.
The same measure, in the same setting: next, `Oc1cc(-c2ccc(N3CCCCC3)nc2)cc2cccnc12`: “inactive”.
Take `CN(Cc1cnc2nc(N)nc(N)c2n1)c1ccc(C(=O)N[C@@H](CCC(=O)O)C(=O)O)cc1`: the “GFP fluorescence, higher = induction” value is “inactive”.
The same measure, in the same setting: next, `O=C(O)c1ccccc1SC1CC(=O)N(c2ccc3c(c2)OCO3)C1=O` (configuration not stated): “inactive”; `Cc1ccc(N2C(=O)CC(Sc3ncn[nH]3)C2=O)cc1C` (configuration not stated): “inactive”; `Fc1cccc(Nc2ncnc3c2cnn3-c2ccccc2)c1`: “inactive”.
On the same count and under the same terms, the result for `Cc1c(NC2=C(Cl)C(=O)N(c3ccccc3Cl)C2=O)c(=O)n(-c2ccccc2)n1C` reads “inactive”; that for `CC(=O)[C@]1(O)Cc2c(O)c3c(c(O)c2[C@@H](O[C@H]2C[C@H](N)[C@H](O)[C@H](C)O2)C1)C(=O)c1ccccc1C3=O`, “inactive”.
Same read-out and setting: next, `C[n+]1ccc(/C=C/c2c[nH]c3ccccc23)cc1`: “inactive”.
As to `O=C(/C=C/c1ccc(Br)cc1)NC(=S)NNC(=O)c1ccco1`, the “GFP fluorescence, higher = induction” value was “inactive”.
Same read-out and setting: the result for `Cc1ccc2[nH]cc(/C=C/c3cc[n+](C)cc3)c2c1` reads “inactive”; that for `O=C(Oc1oc(-c2ccco2)nc1C=Nc1ccccc1)c1ccoc1`, “inactive”.
Same read-out and setting: next, `O=C1C(Cl)=C(Nc2ccccc2O)C(=O)N1CCc1ccccc1`: “inactive”.
The same measure, in the same setting: next, `CCCCC(=O)NC(=S)NNC(=O)CCc1ccccc1`: “inactive”; `Cc1nc2ccc(NC(=O)c3oc4ccc(F)cc4c3C)cc2s1`: “inactive”.
Turning to `Cc1cc(C)c2c(c1)/C(=C/C(=O)c1ccc(Br)s1)C(=O)N2`, the “GFP fluorescence, higher = induction” value was “inactive”.
Still for that read-out and setting: the result for `Cc1ccc(C2=NN(S(C)(=O)=O)C(c3ccc4c(c3)OCO4)C2)cc1` (configuration not stated) reads “inactive”; that for `COc1ccc(N2C(=O)/C(=C/c3cccs3)C(=O)NC2=S)cc1`, “inactive”.
The same measure, in the same setting: the result for `CC(=O)N(\C=C/C=C/C=C1\Sc2ccccc2C1=O)c1ccccc1` reads “inactive”; that for `C#CCOCCOCCOCCNc1nc(N2CCN(C(=O)CCCCCCCCCCNC(=O)[C@H](CCCCN)n3cc(C)nn3)CC2)nc(N2CCN(C(=O)CCCCCCCCCCNC(=O)[C@H](CCCN=C(N)N)n3cc(C[C@@H](C)CC)nn3)CC2)n1`, “inactive”; that for `COC(=O)CCCC1=CC2=CC(=O)C(C)(OC(=O)CCc3ccccc3)C(=O)C2=CO1` (configuration not stated), “inactive”.
Still for that read-out and setting: the result for `CC(C)(C)c1nnc(N/N=C/c2cc(Br)ccc2O)n(N)c1=O` reads “inactive”.
As for `O=C(NNC(=S)NC(=O)C12CC3CC(CC(C3)C1)C2)c1ccncc1`, the “GFP fluorescence, higher = induction” value is “inactive”.
Same read-out and setting: next, `CC1=NOC(=O)/C1=C\c1ccc(-c2cc(Cl)ccc2Cl)o1`: “inactive”.
Same read-out and setting: next, `O=C(Nc1ccc(O)cc1)C1CCCN1S(=O)(=O)c1ccc(F)cc1` (configuration not stated): “inactive”.

Staying with this test, now noted: S. cerevisiae CIT2-GFP strain, flow cytometry fluorescence, 3 h.
For `N/C(=N\OC(=O)c1ccccc1Cl)c1ccc(Cl)cc1`, the EC50 is 6.14 µM.
Still for that read-out and setting: next, `Cc1ccc(O)c(N=Nc2nccs2)c1`: 11.3 µM.

As a reminder, the EC50 is the concentration needed to bring the measured effect to its halfway point.
